From US20230313146A1, “INTESTINAL EPITHELIAL CELL CULTURES” (ARDELYX, INC., priority 2017, published 2023) come the findings set out here.

Type in all cases: cell-based
In experiment [1] the test system is K^+ absorption in mouse distal colonic cultures. Briefly: Mouse distal colon K+ transport screening assay. How it is done:
Ion transport was determined by sampling the apical and basolateral chambers of the Transwell and analyzing these samples on an ion chromatography system (Thermo Fisher ICS-3000 or ICS-5000+) coupled with conductivity detectors. Chromatographic separation of cations was performed using an IonPac CS12A (Dionex) 2×250 mm analytical column with an isocratic elution using 25 mM methanesulfonic acid. Chromatographic separation of anions was performed using an IonPac AS18 (Dionex) 2×250 mm analytical column with an isocratic elution using 35 mM potassium hydroxide. Concentrations were calculated relative to a standard curve for each analyte ion based on retention time and peak area.
An assay was established to measure K^+ transport in mouse distal colonic cultures. Mouse distal colonic monolayer cultures were prepared in 96-well Transwells according to protocol and were used for assay on day 6, 7, or 8 depending on the TEER value of the culture and its water-absorption phenotype. Wells with a TEER value below 450 Ω·cm^2 were not used for assay. […]
To start the assay, 80 μL of apical media was added to triplicate wells per compound and 130 μL of basolateral media was added to the basolateral compartment. […] K^+ and rubidium ion concentrations were determined using ion chromatography. […]

For experiment [2], the system named is human distal colonic cultures. Briefly: Seeding media comparison in human distal colonic monolayer cultures (TEER, RNA profile). Particulars: thiazovivin substituted for Y-27632 in the seeding media (WENRAT). How it is done: Organoids were typically grown for 7-12 days before being used to plate monolayer cultures. Organoid cultures embedded in Matrigel were broken apart in growth media and pooled in a 15 mL conical tube. The cells were centrifuged at 600×g for 3 minutes and resuspended in TrypLE Express and placed in a water bath at 37° C. for 3 minutes. The cells were then removed and pipetted up and down for 7 minutes. BM was added to quench the reaction, and the cell suspension was centrifuged at 600×g for 3 minutes, resuspended in BM, and counted.
Media conditions used for murine colon growth and differentiation were optimized for human distal colon cultures using the water-absorption phenotype characteristic of this segment. The effects of seeding and differentiation media alterations on human distal colon cultures were determined by comparing two seeding medias (WENRAT or WENRNicAST) and three differentiation medias (WENR, ENRA, and ENR). […] Murine colonic growth media (WENR) was altered by removing Wnt3a (W) to generated ENR media, or by removing Wnt3a (W) and adding A83-01 (A) (ENRA). Removal of Wnt3a and addition of A83-01 was necessary for proper differentiation of water-absorbing cultures (FIG. 9B and FIG. 8). […] However, the inclusion of Nic and SB202190 in the WENRNicAST seeding media further suppressed differentiation of secretory cells in human colonic cultures (FIG. 10). […]

Experiment [3] has as its system mouse duodenal, jejunal, and ileal cultures. The experiment is described as follows: Differentiation of mouse small intestinal monolayer cultures (global gene expression PCC versus tissue, TEER).
Method: Approximately 1 μg of the entire isolated RNA was used to prepare each RNA sequencing library. RNA libraries were prepared using the TruSeq Stranded mRNA library preparation kit (Illumina). Most sequencing data were obtained using a NextSeq500 sequencer (Illumina) (2×75 bp, ˜ 30-40 million reads per sample) and some sequencing was performed using a HiSeq sequencer (Illumina) (2×125 bp, ˜ 25-30 million reads per sample). Transcript counts were obtained using the RNA Express application (RNA-Seq reads aligned with the STAR aligner) on the Illumina BaseSpace website.
Pearson correlation coefficients were determined in Microsoft Excel using the Pearson function comparing the transcript count correlation for all genes between two data sets.
On day 2, fresh W2.5ENRY was added to the cultures, and was replaced on day 4. Confluence of the culture was assessed by measuring the TEER. […]
Therefore, global gene expression by RNA sequencing was obtained for 36 culture conditions, taken 4, 6, and 8 days after seeding the cultures, and compared with the gene expression profiles of mouse jejunal villi and crypts. To simplify analysis and to account for changes in global gene expression rather than relying on a handful of marker genes, the Pearson correlation coefficient (PCC) was calculated for the relationship between the gene expression profiles of cultured cells and of mouse jejunal villus cells. […]

`[O]=[V]([O-])([O-])[O-]` [vanadate]: the “block of K^+ absorption” value in experiment [1] (200 μM vanadate, mouse distal colonic cultures) was “block K^+ absorption completely”. In addition, the “Inhibition of K^+ absorption normalized to the mean value of vanadate controls (mean±SD)” value in experiment [1] (vanadate controls, 200 μM, value of 1 = inhibition equivalent to vanadate) amounted to 1.00±0.15.
Consider `O=C(NCc1ccccc1)c1csc(Nc2ccncn2)n1` [thiazovivin], for which, in experiment [2], the “TEER of human colonic cultures” value is given as “higher TEER values” and the secretory cell differentiation result is on record as “some suppression of secretory cell differentiation”.

B1: BMP 4: mouse BMP-4 (Peprotech), bone morphogenetic protein used as differentiation promoting factor (protein, UniProt P21275 293-408, looked up)
Bone morphogenetic protein 4: SPKHHPQRSRKKNKNCRRHSLYVDFSDVGWNDWIVAPPGYQAFYCHGDCPFPLADHLNSTNHAIVQTLVNSVNSSIPKACCVPTELSAISMLYLDEYDKVVLKNYQEMVVEGCGCR
Take B1: in experiment [3] (300 ng/mL, dose titration of individual BMPs), the “correlation of gene expression of cultures with tissues in the jejunum and ileum (PCC)” value is given as “strong correlations of gene expression”. Moreover, the “effectiveness at differentiating mouse duodenal, jejunal, and ileal cultures” value in experiment [3] (compared with the BMP mixture (BMP 2, 4, and 7)) is “as effective as the BMP mixture”.
